# Values quoted from earlier work, collected in patent US6500801B1, “Treatment for Dutch elm disease” (The Governing Council of the University of Toronto, priority 1997, dated 2002).
# Tested on: strains of O. ulmi
row,SMILES,inhibition of growth of strains of O. ulmi
1,CC1=CC2=C(C(=O)C1=O)C(C)CCC2C(C)C (stereo not drawn) [mansonone A],inhibit the growth
2,CC1=Cc2c(C(C)C)ccc(C)c2C(=O)C1=O [mansonone C],inhibit the growth
3,CC1=Cc2c(c(C)cc3c2C(C)CO3)C(=O)C1=O (stereo not drawn) [mansonone D],inhibit the growth
4,CC1=C2OCC(C)c3ccc(C)c(c32)C(=O)C1=O (stereo not drawn) [mansonone E],inhibit the growth
5,CC1=COC2=C(C)C(=O)C(=O)c3c(C)ccc1c32 [mansonone F],inhibit the growth
6,CC1=Cc2c(c(C)cc(O)c2C(C)C)C(=O)C1=O [mansonone G],inhibit the growth
